In patent US20250090699A1, “FAP TARGETING CYCLIC PEPTIDES AND CONJUGATES THEREOF” (Novartis AG, priority 2023, published 2025):
Counter-ions that a name gives are not always drawn. Starred links: 1 amine or outer side, 2 acyl side, 3 side chain; linkers in the order of their positions; H or OH if unused. Non-standard residues stand in square brackets, D forms with d. Residues, ends and D or L forms follow the SMILES beside them. *: point of attachment. Pyrrolidine(2S-CN,4,4-F2) = N#C[C@@H]1CC(F)(F)CN1*; Trp(7-aza) = N[C@@H](Cc1c[nH]c2ncccc12)C(=O)O; Phe(4-CH2NH2) = NCc1ccc(C[C@H](N)C(=O)O)cc1; X7 = CCCCC[C@@H](O)[C@H](N[*:1])C(=O)[*:2]; AEF = NCCOc1ccc(C[C@H](N)C(=O)O)cc1; Hyp = O=C(O)[C@@H]1C[C@@H](O)CN1; NMeF = CN[C@@H](Cc1ccccc1)C(=O)O; Aoc(2) = CCCCCC[C@H](N)C(=O)O; Ahp(2) = CCCCC[C@H](N)C(=O)O; AEEA = NCCOCCOCC(=O)O; X3 = FC1(F)CCN(*)C1

Columns and labels:
mouse FAP [1] = molecular target: T1, mouse FAP (Mus musculus, UniProt P97321); assay: Surface plasmon resonance (SPR) for peptide affinity, mouse FAP; assay type: binding
T1 construct: biotinylated His, Avi tag, mouse FAP (26-761, FAP-M82Q5); His; Avi tag (biotinylated); purchased AcroBiosystems FAP-M82Q5
T1 sequence (P97321 26-761): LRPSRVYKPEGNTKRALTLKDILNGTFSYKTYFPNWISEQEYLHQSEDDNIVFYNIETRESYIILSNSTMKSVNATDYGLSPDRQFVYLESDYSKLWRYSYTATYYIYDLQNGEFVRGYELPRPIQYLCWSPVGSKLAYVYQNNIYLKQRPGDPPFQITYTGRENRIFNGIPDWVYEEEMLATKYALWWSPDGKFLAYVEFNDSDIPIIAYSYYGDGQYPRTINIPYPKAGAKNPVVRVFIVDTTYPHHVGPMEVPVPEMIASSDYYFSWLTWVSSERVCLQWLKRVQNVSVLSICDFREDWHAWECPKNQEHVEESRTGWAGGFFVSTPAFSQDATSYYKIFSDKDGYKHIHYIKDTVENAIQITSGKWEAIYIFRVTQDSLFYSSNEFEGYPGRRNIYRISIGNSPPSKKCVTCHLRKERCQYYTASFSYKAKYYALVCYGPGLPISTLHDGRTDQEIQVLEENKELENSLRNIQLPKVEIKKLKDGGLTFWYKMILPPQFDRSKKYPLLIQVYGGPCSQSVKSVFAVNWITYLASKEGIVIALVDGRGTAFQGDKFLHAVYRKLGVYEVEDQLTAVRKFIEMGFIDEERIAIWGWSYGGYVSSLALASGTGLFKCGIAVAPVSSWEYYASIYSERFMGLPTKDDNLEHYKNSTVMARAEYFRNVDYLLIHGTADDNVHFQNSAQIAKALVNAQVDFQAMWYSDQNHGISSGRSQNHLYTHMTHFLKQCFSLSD
Procedure: Peptide affinities (KD) were determined by SPR using a Biacore™ 8K device (Cytiva) towards the following proteins: biotinylated His, Avi tag, human FAP (26-760, FAP-H82Q6), biotinylated His, Avi tag, mouse FAP (26-761, FAP-M82Q5), His tag, human DPP4 (34-766, DP4-H82E3), all purchased from AcroBiosystems and His tag, mouse DPP4 (29-760, 954-SE) from R&D Systems. The FAP proteins and their homologous were diluted to a concentration of 2 μg/mL into acetate buffer pH 5.5, then immobilized onto a CM5 sensorchip (Cytiva, BR-1005-30) to reach a response around 2000 R U. The running buffer HBS-EP+pH 7.6 (20× from Teknova CAT. No: H8022) contained 10 mM HEPES pH 7.6, 150 mM NaCl, 3 mM EDTA, 0.05% Tween20 and 2% DMSO. Experiments were carried out at 25° C. using a flow rate of 30 μL/min. Compounds were tested in single cycle kinetic mode at 8 different concentrations. Curve fitting was performed using the Biacore™ 8K evaluation software. The sensorgrams were fitted by applying a 1:1 binding model to calculate kinetic rate constants and equilibrium dissociation constants (KD).
For this assay, the setup had the same conditions (flow rate, running buffer, peptide dilution) as described above for the CM5 method. The oligo CAP reagent obtained in the CAPture Kit (Ref. 28920234) was 1/5 diluted into running buffer and used with a contact time of 300 s at a flow rate of 2 μL/min. The human and mouse FAP constructs described above were used (from AcroBiosystems or produced in house). The FAP proteins were diluted to a concentration of 2 μg/mL into acetate pH 5.5, 0.05% Tween20 and used with a contact time of 600 s at a flow rate of 10 μL/min. The peptides were tested with an association time of 280 s followed by a dissociation time of 3000 s at a flow rate of 30 μL/min. The regeneration was done using the regeneration solution (8 M guanidine-HCl, 1 M NaOH) as obtained with a contact time of 270 s at a flow rate of 10 μL/min. […] The compounds marked with an asterisk were tested against human and mouse DDP4.

human FAP = molecular target: T2, human FAP (Homo sapiens, UniProt Q12884); assay: Enzymatic FAP competition assay (Z-Gly-Pro-AMC fluorescence), human FAP; assay type: biochemical; details: read-out: h. FAP, Enz., IC50
T2 construct: the biotinylated His, Avi tag, human FAP (26-760, FAP-H82Q6); His; Avi tag (biotinylated); purchased AcroBiosystems FAP-H82Q6
T2 sequence (Q12884 26-760): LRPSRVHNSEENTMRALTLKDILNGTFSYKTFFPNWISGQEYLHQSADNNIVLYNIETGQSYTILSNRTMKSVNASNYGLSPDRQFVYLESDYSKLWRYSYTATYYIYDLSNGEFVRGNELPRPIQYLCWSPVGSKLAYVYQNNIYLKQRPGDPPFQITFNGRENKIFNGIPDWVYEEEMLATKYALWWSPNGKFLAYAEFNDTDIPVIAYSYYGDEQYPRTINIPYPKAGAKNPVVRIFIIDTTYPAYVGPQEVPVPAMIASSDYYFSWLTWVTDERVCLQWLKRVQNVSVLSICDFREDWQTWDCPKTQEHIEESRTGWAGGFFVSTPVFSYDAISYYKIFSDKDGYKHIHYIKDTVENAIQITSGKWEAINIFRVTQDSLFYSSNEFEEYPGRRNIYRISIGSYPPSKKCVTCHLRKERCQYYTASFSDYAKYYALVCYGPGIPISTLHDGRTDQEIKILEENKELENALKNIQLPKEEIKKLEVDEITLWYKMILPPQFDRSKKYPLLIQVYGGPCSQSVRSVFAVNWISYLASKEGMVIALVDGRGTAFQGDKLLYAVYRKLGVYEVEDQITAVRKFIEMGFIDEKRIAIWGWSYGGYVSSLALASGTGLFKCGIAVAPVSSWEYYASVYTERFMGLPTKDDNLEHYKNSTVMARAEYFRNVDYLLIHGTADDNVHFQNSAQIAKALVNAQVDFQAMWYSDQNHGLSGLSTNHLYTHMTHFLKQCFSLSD
Procedure: (§1) Peptide potencies (IC50) to inhibit the FAP enzymatic activity were determined using a fluorescence-based assay towards the biotinylated His, Avi tag, human FAP (26-760, FAP-H82Q6) and the biotinylated His, Avi tag, mouse FAP (26-761, FAP-M82Q5). Standard assay conditions consisted of 20 μL total volume in white 384-well plates (Greiner, Ref. 784075), in 50 mM phosphate buffer pH 7.5 containing 150 mM NaCl, 0.05% Tween20 and 1% final DMSO. Tested peptides at 14 different concentrations up to 1 μM were added to 0.01 nM human or mouse FAP. The peptides were incubated for 24 hours together with the protein before adding the substrate 50 μM Z-Gly-Pro-AMC (I-1145 from Bachem). Samples were then incubated at 22-24° C. for 4 h before reading the fluorescence at excitation wavelength of 380 nm and emission wavelength of 460 nm using the Tecan Infinite® M1000 PRO. The high control (100% activity) was not containing any peptide, and an internal potent peptide was added at 10 μM concentration for the low control (100% inhibition). IC50 values were calculated by curve fitting using an in-house developed software (Novartis Helios software application) using the method described by Fomenko et al., 2006 (regression algorithms for nonlinear dose-response curve fitting). Following normalization of activity values for the wells to % inhibition (% inhibition=[(high control-sample)/(high control-low control)]x 100). IC50 fitting was carried out from the duplicated points.

mouse FAP [2] = molecular target: T1, mouse FAP; assay: Enzymatic FAP competition assay (Z-Gly-Pro-AMC fluorescence), mouse FAP; assay type: biochemical; details: read-out: m. FAP, Enz., IC50
Procedure: as §1

Row | SMILES | Kd (mouse FAP [1]) [nM] | IC50 (human FAP) [nM] | IC50 (mouse FAP [2]) [nM]
1 | CCCCC[C@@H]1NC(=O)[C@H](Cc2ccc(O)cc2)NC(=O)[C@H](Cc2ccccc2)N(C)C(=O)CNC(=O)[C@H](CCCCN)NC(=O)[C@H]2CCCN2C(=O)[C@H](CC(=O)O)NC(=O)[C@H](Cc2ccc(O)cc2)NC(=O)CNC(=O)[C@H](Cc2c[nH]c3ncccc23)NC1=O [Example A26, 2-((3S,9S,12S,15S,18S,24S,27S,32aR)-18-((1H-pyrrolo[2,3-b]pyridin-3-yl)methyl)-3-(4-aminobutyl)-9-benzyl-12,24-bis(4-hydroxybenzyl)-8-methyl-1,4,7,10,13,16,19,22,25,28-decaoxo-15-pentyldotriacontahydropyrrolo[1,2-a][1,4,7,10,13,16,19,22,25,28]decaazacyclotriacontin-27-yl)acetic acid TFA salt] (cyclo([Ahp(2)][Trp(7-aza)]GYD[dP]KG[NMeF]Y)) | 2.7 | 0.47 | 1.6
2 | CCCCC[C@@H]1NC(=O)[C@H](Cc2ccc(CNC(=O)COCCOCCN)cc2)NC(=O)[C@H](Cc2ccccc2)N(C)C(=O)CNC(=O)CNC(=O)[C@H]2CCCN2C(=O)[C@H](CC(=O)O)NC(=O)[C@H](Cc2ccc(O)cc2)NC(=O)CNC(=O)[C@H](Cc2c[nH]c3ccccc23)NC1=O [Example A27, Gly-Gly-NMePhe-F(4amPEG2NH2)-Ahp-Trp-Gly-Tyr-Asp-D-Pro] (cyclo([Ahp(2)]WGYD[dP]GG[NMeF][Phe(4-CH2NH2)](AEEA))) | 0.219 | 0.045 | 0.138
3 | CCCCC[C@@H]1NC(=O)[C@H](Cc2ccc(CNC(C)=O)cc2)NC(=O)[C@H](Cc2ccccc2)N(C)C(=O)CNC(=O)CNC(=O)[C@H]2CCCN2C(=O)[C@H](CC(=O)O)NC(=O)[C@H](Cc2ccc(O)cc2)NC(=O)CNC(=O)[C@H](Cc2c[nH]c3ccccc23)NC1=O [Example A28, Gly-Gly-NMePhe-F(4AmAc)-Ahp-Trp-Gly-Tyr-Asp-D-Pro] (cyclo(GG[NMeF][Phe(4-CH2NH2)](Ac)[Ahp(2)]WGYD[dP])) | 0.52 | 0.063 | 0.33
4 | CN1C(=O)CNC(=O)[C@H](CCCCN)NC(=O)[C@H]2CCCN2C(=O)[C@H](CC(=O)O)NC(=O)[C@H](Cc2ccc(O)cc2)NC(=O)CNC(=O)[C@H](Cc2c[nH]c3ccccc23)NC(=O)[C@H](CCC(=O)N2CC(F)(F)C[C@H]2C#N)NC(=O)[C@H](Cc2ccc(O)cc2)NC(=O)[C@@H]1Cc1ccccc1 [Example A29, Lys-Gly-NMePhe-Tyr-Q(Pyrro(2CN4F2))-Trp-Gly-Tyr-Asp-D-Pro] (cyclo(KG[NMeF]YE(Pyrrolidine(2S-CN,4,4-F2))WGYD[dP])) | 0.044 | 0.059 | 0.082
5 | CN1C(=O)CNC(=O)[C@H](CCCCN)NC(=O)[C@H]2CCCN2C(=O)[C@H](CC(=O)O)NC(=O)[C@H](Cc2ccc(O)cc2)NC(=O)CNC(=O)[C@H](Cc2c[nH]c3ccccc23)NC(=O)[C@H](CCC(=O)N2CCC(F)(F)C2)NC(=O)[C@H](Cc2ccc(O)cc2)NC(=O)[C@@H]1Cc1ccccc1 [Example A30, Lys-Gly-NMePhe-Tyr-Q(Pyrro(4F2))-Trp-Gly-Tyr-Asp-D-Pro, TFA salt] (cyclo(D[dP]KG[NMeF]YE(X3)WGY)) | 2.4 | 0.79 | 2.5
6 | CCCCCC[C@@H]1NC(=O)[C@H](Cc2ccc(O)cc2)NC(=O)[C@H](Cc2ccccc2)N(C)C(=O)CNC(=O)[C@H](CCCCN)NC(=O)[C@H]2CCCN2C(=O)[C@H](CC(=O)O)NC(=O)[C@H](Cc2ccc(O)cc2)NC(=O)CNC(=O)[C@H](Cc2c[nH]c3ccccc23)NC1=O [Example A31, Lys-Gly-NMePhe-Tyr-Aoc-Trp-Gly-Tyr-Asp-D-Pro, TFA salt] (cyclo([Aoc(2)]WGYD[dP]KG[NMeF]Y)) | 0.106 | 0.04 | 0.158
7 | CCCCC[C@@H]1NC(=O)[C@H](Cc2ccc(OCCN)cc2)NC(=O)[C@H](Cc2ccccc2)N(C)C(=O)CNC(=O)[C@@H]2C[C@@H](O)CN2C(=O)[C@H]2CCCN2C(=O)[C@H](CC(=O)O)NC(=O)[C@H](Cc2ccc(O)cc2)NC(=O)CNC(=O)[C@H](Cc2c[nH]c3ccccc23)NC1=O [Example A33, trans4Hyp-Gly-NMePhe-F(4OEtNH2)-Ahp-Trp-Gly-Tyr-Asp-D-Pro] (cyclo([AEF][Ahp(2)]WGYD[dP][Hyp]G[NMeF])) | 1.1 | 1 | 3.2
8 | CCCCC[C@@H](O)[C@@H]1NC(=O)[C@H](Cc2ccc(O)cc2)NC(=O)[C@H](Cc2ccccc2)N(C)C(=O)CNC(=O)CNC(=O)[C@H]2CCCN2C(=O)[C@H](CC(=O)O)NC(=O)[C@H](Cc2ccc(O)cc2)NC(=O)CNC(=O)[C@H](Cc2c[nH]c3ccccc23)NC1=O [Example A34, Gly-Gly-NMePhe-Tyr-Aoc(3R-OH)-Trp-Gly-Tyr-Asp-D-Pro] (cyclo(D[dP]GG[NMeF]Y[X7]WGY)) | 0.25 | 0.055 | 0.4
